Where two headings read alike, the source gives them in different places.
Experiments:
SARS-CoV-2 [1] = assay: SARS-CoV-2 dose-response curve analysis by immunofluorescence in Vero cells
[2] = Stability of plitidepsin drug product and reconstituted solution; assay type: physicochemical
Protocol: Plitidepsin will be labelled with the study protocol code, the batch number, the content, the expiry date, the storage conditions, the name of the investigator and the sponsor. The study drug will be labelled in accordance with Annex 13 of the European Good Manufacturing Practices. Plitidepsin should be stored between 2° C. and 8° C. and the vials should be kept in the outer carton to protect them from light. The drug in these conditions is stable for 60 months.
After reconstitution of the 2 mg plitidepsin vial with 4 ml of the solution for reconstitution of macrogolglycerol ricinoleate/ethanol/water for injection, the reconstituted solution should be diluted and used immediately after preparation. If not used immediately, storage times and conditions until use are the responsibility of the user. […] If storage is required before administration, solutions should be stored refrigerated and protected from light and should be used within 24 hours after reconstitution.

SARS-CoV-2 [3] = assay: SARS-CoV-2 replication in human stem cell-derived pneumocyte like cells; assay type: cell-based; conditions: 10 nm plitidepsin for 1 hour before infection; 48 hour incubation
Protocol: Several in vitro experiments aimed at determining the effect of plitidepsin on SARS-CoV-2 were carried out and are disclosed herein. […] In another study, human stem cell-derived pneumocyte like cells were prophylactically exposed to 10 nm plitidepsin for 1 hour and then infected with SARS-CoV-2 (4 × 10^4 plaque forming units). After a 48 hour incubation period, both antiviral and cytotoxic plitidepsin effects were determined.

NF-κB = NF-κB transactivation luciferase assay in THP-1 NF-κB-Luc cells; assay type: cell-based, human; conditions: 100 nM plitidepsin, 6 hours; with poly I:C, LPS-B5 or Resiquimod (TLR ligands)
Protocol: Luminescence was measured in a Perkin-Elmer EnVision reader.

WNV-NY99 (lineage 1) [4] = assay type: cell-based, West Nile virus; conditions: for Intracellular WNV RNA load (RT-qPCR): Vero-E6 cells
[5] = Cell biomass (DAPI) in Vero-E6 cells; assay type: cell-based, African green monkey; conditions: African green monkey, Vero-E6 cells, VeroE6 cells, read-out: CC50 based on cell biomass
Protocol: (§1) Relative infection efficiency was assessed by automated fluorescence microscopy in the green channel and overall cell biomass/well was estimated by nuclear staining with DAPI in the blue channel, as a preliminary assessment of the compound effective doses as well as overall compound cytotoxicity.
(§2) Cells were fixed by addition of a 5X formaldehyde solution to achieve a 4% final concentration for 30 mins at room temperature. Cells were washed with PBS and stained with DAPI (4′,6-diamidino-2-phenylindole) following manufacturer’s recommendations. Relative infection efficiency was estimated by image analysis in an automated microscopy device (Tecan Spark Cyto). Uninfected cells and vehicle-treated controls were included in each plate.

Vero-E6 cells = assay: Cell biomass (DAPI) in Vero-E6 cells; assay type: cell-based, African green monkey; conditions: VeroE6 cells, 48 hours
Protocol: as §1, §2

[6] = molecular target: eEF1A purified from rabbit muscle (Oryctolagus cuniculus, UniProt Q71V39); assay: Binding of 14C-plitidepsin to purified eEF1A
[7] = Pharmacokinetics in patients; assay type: in vivo; conditions: both sexes, plasma, Human (M/F), 0.135 mg/kg (Recommended Dose 5 mg/m2), 3-h intravenous infusion
alveolar macrophages = assay: LPS animal inflammation model: macrophages in bronchoalveolar lavage by flow cytometry; assay type: in vivo, mouse; conditions: mice 1 mg/kg single i.v., LPS 20 µg/kg i.p.
Description: Three hours later, bronchoalveolar lavages were collected.

SARS-CoV-2 [8] = assay: SARS-CoV-2 cytopathic effect in Vero E6 cells (CellTiter-Glo); assay type: cell-based; conditions: Severe acute respiratory syndrome coronavirus 2, Vero C1008, 72 h, 3 days post infection, two experiments with two replicates each, read-out: IC50 viral-induced cytopathic effect (mean and standard deviation)
Protocol: Vero E6 cells (ATCC CRL-1586) were cultured in Dulbecco’s modified Eagle medium, (DMEM; Lonza) supplemented with 5% fetal calf serum (FCS; EuroClone), 100 U/mL penicillin, 100 µg/mL streptomycin, and 2 mM glutamine (all ThermoFisher Scientific).
Plitidepsin was used at a concentration ranging from 100 µM to 0.0512 nM at ⅕ serial dilutions, and also assayed from 10 µM to 0.5 nM at ⅓ dilutions.
Increasing concentrations of Plitidepsin was added to Vero E6 cells together with 10^1.8 TCID50/mL of SARS-CoV-2, a concentration that achieves a 50% of cytopathic effect. Non-exposed cells were used as negative controls of infection. In order to detect any drug-associated cytotoxic effect, Vero E6 cells were equally cultured in the presence of increasing drug concentrations, but in the absence of virus. Cytopathic or cytotoxic effects of the virus or drugs were measured at 3 days post infection, using the CellTiter-Glo luminescent cell viability assay (Promega). Luminescence was measured in a Fluoroskan Ascent FL luminometer (ThermoFisher Scientific).
Response curves were adjusted to a non-linear fit regression model, calculated with a four-parameter logistic curve with variable slope. […] Statistical differences from 100% were assessed with a one sample t test. […]

[9] = system: WNV-GFP (lineage 2; molecular clone WN956)
SARS-CoV-2 [10] = assay: APLICOV-PC clinical study in patients hospitalised for COVID-19: efficacy; assay type: in vivo, human
WNV-NY99 (lineage 1) [11] = conditions: Huh-7 cells

Chain of eEF1A purified from rabbit muscle (Q71V39 whole entry, the tested form may be a part): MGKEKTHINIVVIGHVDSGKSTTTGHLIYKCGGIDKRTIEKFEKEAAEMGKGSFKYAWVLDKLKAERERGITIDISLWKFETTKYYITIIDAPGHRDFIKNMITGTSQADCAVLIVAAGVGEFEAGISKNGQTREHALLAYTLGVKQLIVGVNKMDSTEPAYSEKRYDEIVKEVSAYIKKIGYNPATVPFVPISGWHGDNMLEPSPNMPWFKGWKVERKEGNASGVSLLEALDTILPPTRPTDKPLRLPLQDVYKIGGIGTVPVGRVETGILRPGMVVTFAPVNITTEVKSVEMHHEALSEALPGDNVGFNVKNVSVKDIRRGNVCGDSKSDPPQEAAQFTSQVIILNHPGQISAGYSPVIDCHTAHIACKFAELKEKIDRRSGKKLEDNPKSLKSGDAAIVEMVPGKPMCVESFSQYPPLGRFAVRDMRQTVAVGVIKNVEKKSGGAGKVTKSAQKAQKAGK

**Q.** What does the source list for `CC[C@H](C)[C@H]1NC(=O)[C@@H](NC(=O)[C@@H](CC(C)C)N(C)C(=O)[C@@H]2CCCN2C(=O)C(C)=O)[C@@H](C)OC(=O)[C@H](Cc2ccc(OC)cc2)N(C)C(=O)[C@@H]2CCCN2C(=O)[C@H](CC(C)C)NC(=O)[C@@H](C)C(=O)[C@H](C(C)C)OC(=O)C[C@@H]1O` [plitidepsin]?
**A.** SI (SARS-CoV-2 [1]): 49.95-129.92; IC50 (SARS-CoV-2 [1]; read-out: IC50 inhibition of virus infection, Vero cells, MOI 0.0125, 24 hpi, three repeats): 0.0033 to 0.0039 µM; Physical, chemical and microbiological stability of reconstituted concentrated solution ([2]; original vial under indoor light at room temperature): 6 hours; Physical, chemical and microbiological stability of reconstituted concentrated solution ([2]; refrigerated conditions (5° C.±3° C.)): 24 hours; Stability of the drug (vials) ([2]; stored between 2° C. and 8° C., protected from light): 60 months; SARS-CoV-2 replication (SARS-CoV-2 [3]): completely eliminated replication of SARS-CoV-2; NF-κB transactivation (luciferase activity) (NF-κB): clearly inhibited the production of luciferase; Reduction of extracellular infectivity titers (WNV-NY99 (lineage 1) [4]; 45 nM, VeroE6 cells, 48 hours): > 3 orders of magnitude; Intracellular WNV RNA load (RT-qPCR) (WNV-NY99 (lineage 1) [4]; 5 and 1.5 nM): not distinguishable from those in the control; Intracellular WNV RNA load (RT-qPCR) (WNV-NY99 (lineage 1) [4]; 15 and 45 nM): significantly decreased in a dose-dependent manner; CC50 at 48 h [5]: 2.33 µM; Concentration up to which cell number remained unchanged (Vero-E6 cells): up to 36 nM; Binding affinity to eEF1A [6]: high affinity; Rate of dissociation from eEF1A [6]: low rate of dissociation; AUC(0-inf) [7]: 0.256 µg·h/mL; Cmax [7]: 0.0291 µg/mL; clearance [7]: 0.7 to 0.9 L/h/kg; Vd ([7]; read-out: Vdss): 29 to 33 L/kg; half-life ([7]; read-out: t½): 20 to 80 h; Macrophages in bronchoalveolar lavage (alveolar macrophages): decrease the percentage of macrophages presents on bronchoalveolar lavage without cytotoxic effects; IC50 (SARS-CoV-2 [8]): 0.06 ± 0.02 µM; Concentration with antiviral activity in the absence of measurable interference with cell viability (p<0.05) ([9]; Vero-E6 cells): 7.2 nM; Therapeutic index (CC50/EC50) ([9]; VeroE6 cells): 475; Concentration reaching background fluorescence levels ([9]; VeroE6 cells, 48 hours): ≥ 36 nM; Mean time from baseline until undetectable viral load (SARS-CoV-2 [10]): 11 days; Mortality from Day 1 to Day 7 (SARS-CoV-2 [10]): 0 n (%); Mortality from Day 1 to Day 15 (SARS-CoV-2 [10]): 0 n (%); Mortality from Day 1 to Day 31 (SARS-CoV-2 [10]): 2 (4.5) n (%); Patients requiring ICU admission from Day 1 to Day 7 (SARS-CoV-2 [10]): 5 (11.4) n (%); Patients requiring ICU admission from Day 1 to Day 15 (SARS-CoV-2 [10]): 6 (13.6) n (%); Patients requiring ICU admission from Day 1 to Day 31 (SARS-CoV-2 [10]): 6 (13.6) n (%); Patients requiring invasive mechanical ventilation and/or ICU admission from Day 1 to Day 7 (SARS-CoV-2 [10]): 5 (11.4) n (%); Patients requiring invasive mechanical ventilation and/or ICU admission from Day 1 to Day 15 (SARS-CoV-2 [10]): 6 (13.6) n (%); Patients requiring invasive mechanical ventilation and/or ICU admission from Day 1 to Day 31 (SARS-CoV-2 [10]): 6 (13.6) n (%); Patients requiring noninvasive mechanical ventilation from Day 1 to Day 7 (SARS-CoV-2 [10]): 4(9.1) n (%); Patients requiring noninvasive mechanical ventilation from Day 1 to Day 15 (SARS-CoV-2 [10]): 5 (11.4) n (%); Patients requiring noninvasive mechanical ventilation from Day 1 to Day 31 (SARS-CoV-2 [10]): 6 (13.6) n (%); Mean change in viral load from baseline to Day 4 (SARS-CoV-2 [10]; 96 h): -1.90 log10 copies/mL; Mean change in viral load from baseline to Day 7 (SARS-CoV-2 [10]; 168 h): -3.07 log10 copies/mL; Mean reduction in viral load (SARS-CoV-2 [10]; 168 h): -3.1 log10 copies/mL; Patients requiring oxygen therapy at Day 7 (SARS-CoV-2 [10]; 168 h): 31 (70.5) n (%); Patients discharged from hospital by Day 8 (SARS-CoV-2 [10]; 192 h): 25 (56.8) n (%); Mean change in viral load from baseline to Day 15 (SARS-CoV-2 [10]; 360 h): -4.48 log10 copies/mL; Mean reduction in viral load (SARS-CoV-2 [10]; 360 h): -4.5 log10 copies/mL; Patients discharged from hospital by Day 15 (SARS-CoV-2 [10]; 360 h): 36 (81.8) n (%); Patients requiring oxygen therapy at Day 15 (SARS-CoV-2 [10]; 360 h): 9 (20.5) n (%); Reduction in viral load (SARS-CoV-2 [10]; 360 h): -3.0 log; Mean change in viral load from baseline to Day 31 (SARS-CoV-2 [10]; 744 h): -5.27 log10 copies/mL; Patients discharged from hospital by Day 31 (SARS-CoV-2 [10]; 744 h): 40 (90.9) n (%); Patients requiring oxygen therapy at Day 31 (SARS-CoV-2 [10]; 744 h): 3 (6.8) n (%); Intracellular WNV RNA load (RT-qPCR) (WNV-NY99 (lineage 1) [11]; 15 nM): marked reduction in viral load; Total cellular RNA recovery (WNV-NY99 (lineage 1) [11]; 45 nM): no RNA could be recovered; Reduction of extracellular infectivity titers (WNV-NY99 (lineage 1) [11]; 45 nM, 48 hours): > 3 orders of magnitude

— patent US20230295236A1, “COMPOUNDS FOR USE IN INFLAMMATORY CONDITIONS” (priority 2020, published 2023)
